From ChEMBL document CHEMBL1201862, “PubChem BioAssay data set” (2004)
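Interpolation was linear, between the two tested concentrations surrounding the appropriate level; five concentrations were tested over 48 hours in 96-well plates. GI50: concentration for 50% inhibition of growth.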 Activity calls are given as the source filed them. Cut-off read from the data, not from the text of the source: active = GI50 up to about 1.1 µM and inactive = higher.

How the values were obtained:
Test in all cases: inhibition of tumour cell growth, NCI panel, 48 h
[1] = test system: 786-0
[2] = test system: A498
[3] = test system: A549
[4] = test system: ACHN
[5] = test system: BT-549
[6] = test system: CAKI-1
[7] = test system: CCRF-CEM
[8] = test system: COLO 205
[9] = test system: DU-145
[10] = test system: EKVX
[11] = test system: HCC 2998
[12] = test system: HCT-116
[13] = test system: HCT-15
[14] = test system: HL-60
[15] = test system: HOP-62
[16] = test system: HOP-92
[17] = test system: HT-29
[18] = test system: Hs-578T
[19] = test system: IGROV-1
[20] = test system: K562
[21] = test system: KM12
[22] = test system: LOX IMVI
[23] = test system: M14
[24] = test system: MCF7
[25] = test system: MDA-MB-231
[26] = test system: MDA-MB-435
[27] = test system: MDA-N
[28] = test system: MOLT-4
[29] = test system: NCI-H226
[30] = test system: NCI-H23
[31] = test system: NCI-H460
[32] = test system: NCI-H522
[33] = test system: NCI/ADR-RES
[34] = test system: OVCAR-3
[35] = test system: OVCAR-4
[36] = test system: OVCAR-5
[37] = test system: OVCAR-8
[38] = test system: PC-3
[39] = test system: RPMI-8226
[40] = test system: RXF 393
[41] = test system: SF-268
[42] = test system: SF-295
[43] = test system: SF-539
[44] = test system: SK-MEL-28
[45] = test system: SK-MEL-2
[46] = test system: SK-MEL-5
[47] = test system: SK-OV-3
[48] = test system: SN12C
[49] = test system: SNB-19
[50] = test system: SNB-75
[51] = test system: SR
[52] = test system: SW-620
[53] = test system: T47D
[54] = test system: TK-10
[55] = test system: U-251
[56] = test system: UACC-257
[57] = test system: UACC-62
[58] = test system: UO-31
[59] = test system: Malme-3M

`NC(=O)N(O)c1cccc(Br)c1` was tested, and the GI50 [1] was > 100 µM (inactive), the GI50 [2] was > 100 µM (inactive) and the GI50 [3] was > 100 µM (inactive). For the same molecule, the GI50 [4] was > 100 µM (inactive), the GI50 [5] was > 100 µM (inactive) and the GI50 [6] was > 100 µM (inactive). The GI50 [7] was > 100 µM (inactive), the GI50 [8] was > 100 µM (inactive) and the GI50 [9] was > 100 µM (inactive). For the same molecule, the GI50 [10] was > 100 µM (inactive), the GI50 [11] was > 100 µM (inactive) and the GI50 [12] was > 100 µM (inactive). The GI50 [13] was over 100 µM, the GI50 [14] was > 100 µM (inactive) and the GI50 [15] was > 100 µM (inactive). For the same molecule, the GI50 [16] was > 100 µM (inactive), the GI50 [17] was > 100 µM (inactive) and the GI50 [18] was > 100 µM (inactive). For the same molecule, the GI50 [19] was > 100 µM (inactive), the GI50 [20] was > 100 µM (inactive) and the GI50 [21] was > 100 µM (inactive). For the same molecule, the GI50 [22] was > 100 µM (inactive), the GI50 [23] was > 100 µM (inactive) and the GI50 [24] was > 100 µM (inactive). For the same molecule, the GI50 [25] was > 100 µM (inactive), the GI50 [26] was > 100 µM (inactive) and the GI50 [27] was > 100 µM (inactive). The GI50 [28] was > 100 µM (inactive), the GI50 [29] was > 100 µM (inactive) and the GI50 [30] was > 100 µM (inactive). For the same molecule, the GI50 [31] was > 100 µM (inactive), the GI50 [32] was > 100 µM (inactive) and the GI50 [33] was > 100 µM (inactive). The GI50 [34] was > 100 µM (inactive), the GI50 [35] was > 100 µM (inactive) and the GI50 [36] was > 100 µM (inactive). For the same molecule, the GI50 [37] was > 100 µM (inactive), the GI50 [38] was > 100 µM (inactive) and the GI50 [39] was > 100 µM (inactive). The GI50 [40] was > 100 µM (inactive), the GI50 [41] was > 100 µM (inactive) and the GI50 [42] was > 100 µM (inactive). For the same molecule, the GI50 [43] was > 100 µM (inactive), the GI50 [44] was > 100 µM (inactive) and the GI50 [45] was 66.5 µM (inactive). For the same molecule, the GI50 [46] was > 100 µM (inactive), the GI50 [47] was > 100 µM (inactive) and the GI50 [48] was > 100 µM (inactive). The GI50 [49] was > 100 µM (inactive), the GI50 [50] was > 100 µM (inactive) and the GI50 [51] was > 100 µM (inactive). The GI50 [52] was > 100 µM (inactive), the GI50 [53] was > 100 µM (inactive) and the GI50 [54] was > 100 µM (inactive). For the same molecule, the GI50 [55] was > 100 µM (inactive), the GI50 [56] was > 100 µM (inactive) and the GI50 [57] was > 100 µM (inactive). The GI50 [58] was > 100 µM (inactive).
For `CCOc1ccc(/N=N/S(=O)(=O)O)cc1`, the GI50 [1] was > 100 µM (inactive), the GI50 [2] was > 100 µM (inactive) and the GI50 [3] was > 100 µM (inactive). The GI50 [4] was > 100 µM (inactive), the GI50 [5] was > 100 µM (inactive) and the GI50 [6] was > 100 µM (inactive). For the same molecule, the GI50 [7] was > 100 µM (inactive), the GI50 [8] was > 100 µM (inactive) and the GI50 [9] was > 100 µM (inactive). The GI50 [10] was > 100 µM (inactive), the GI50 [11] was > 100 µM (inactive) and the GI50 [12] was > 100 µM (inactive). The GI50 [13] was over 100 µM, the GI50 [14] was > 100 µM (inactive) and the GI50 [15] was > 100 µM (inactive). For the same molecule, the GI50 [16] was > 100 µM (inactive), the GI50 [17] was > 100 µM (inactive) and the GI50 [18] was > 100 µM (inactive). The GI50 [19] was > 100 µM (inactive), the GI50 [20] was > 100 µM (inactive) and the GI50 [21] was > 100 µM (inactive). The GI50 [22] was > 100 µM (inactive), the GI50 [23] was > 100 µM (inactive) and the GI50 [24] was > 100 µM (inactive). For the same molecule, the GI50 [25] was > 100 µM (inactive), the GI50 [26] was > 100 µM (inactive) and the GI50 [27] was > 100 µM (inactive). For the same molecule, the GI50 [59] was > 100 µM (inactive), the GI50 [29] was > 100 µM (inactive) and the GI50 [30] was > 100 µM (inactive). The GI50 [31] was > 100 µM (inactive), the GI50 [32] was > 100 µM (inactive) and the GI50 [33] was > 100 µM (inactive). For the same molecule, the GI50 [34] was > 100 µM (inactive), the GI50 [35] was > 100 µM (inactive) and the GI50 [36] was > 100 µM (inactive). The GI50 [37] was > 100 µM (inactive), the GI50 [38] was > 100 µM (inactive) and the GI50 [39] was > 100 µM (inactive). The GI50 [40] was > 100 µM (inactive), the GI50 [41] was > 100 µM (inactive) and the GI50 [42] was > 100 µM (inactive). For the same molecule, the GI50 [43] was > 100 µM (inactive), the GI50 [44] was > 100 µM (inactive) and the GI50 [45] was > 100 µM (inactive). For the same molecule, the GI50 [46] was > 100 µM (inactive), the GI50 [47] was > 100 µM (inactive) and the GI50 [48] was > 100 µM (inactive). For the same molecule, the GI50 [49] was > 100 µM (inactive), the GI50 [50] was > 100 µM (inactive) and the GI50 [51] was > 100 µM (inactive). The GI50 [52] was > 100 µM (inactive), the GI50 [53] was > 100 µM (inactive) and the GI50 [54] was > 100 µM (inactive). The GI50 [55] was > 100 µM (inactive), the GI50 [56] was > 100 µM (inactive) and the GI50 [57] was > 100 µM (inactive). For the same molecule, the GI50 [58] was > 100 µM (inactive).
